Experimental data as given in patent publication CN110478361A, “一种安全性高的灯盏花乙素药物组合物及其制备方法” (KUNMING LONGJIN PHARMACEUTICAL CO Ltd, priority 2018, dated 2019).

Assays:
[1] = test system: Beagle dogs (Beagle犬); assay: Repeated-dose intravenous toxicity in Beagle dogs, four weeks with four-week recovery; format: in vivo, dog; conditions: worked out from dog 28-day i.v. NOAEL
[2] = as above; format: in vivo, dog; conditions: in vivo, iv; Beagle dog, i.v. once daily, 28 days, recovery 28 days; 25, 50, 100 mg/kg; injectable breviscapine made from Example 1; read-out: no observed adverse effect level (NOAEL)
[3] = Clarity test (compared with yellow-green No. 6 standard colour solution, Chinese Pharmacopoeia 2015, general chapter 0901, method 1); format: physicochemical; conditions: 0.02 mg per mL in 1% sodium hydrogencarbonate solution, inspected within 5 minutes
[4] = test system: SD rats (SD大鼠); assay: Repeated-dose intravenous toxicity in SD rats, four weeks with four-week recovery; format: in vivo, rat; conditions: worked out from rat 28-day i.v. NOAEL
[5] = as above; format: in vivo, rat; conditions: in vivo, iv; SD rat, i.v. once daily, 28 days, recovery 29 days; 200, 400, 600 mg/kg; injectable breviscapine made from Example 1; read-out: no observed adverse effect level (NOAEL)
[6] = test system: SD rats (SD大鼠); assay: Single-dose intravenous toxicity in SD rats; format: in vivo, rat; conditions: worked out from rat single i.v. MTD
[7] = Single-dose intravenous toxicity in SD rats; format: in vivo, rat; conditions: in vivo, iv; SD rat, single i.v., injectable breviscapine made from Example 1; 500, 750, 1000 mg/kg; 14 days observation; read-out: maximum tolerated dose (MTD)
[8] = test system: Beagle dogs (Beagle犬); assay: Single-dose intravenous toxicity in Beagle dogs; format: in vivo, dog; conditions: worked out from dog single i.v. MTD
[9] = Single-dose intravenous toxicity in Beagle dogs; format: in vivo, dog; conditions: in vivo, iv; Beagle dog, single i.v., injectable breviscapine made from Example 1; 200, 400 mg/kg; 14 days observation; read-out: maximum tolerated dose (MTD)
[10] = aglycone and active metabolite of scutellarin, compared with scutellarin; cited from earlier work
[11] = in air; cited from earlier work
[12] = test system: rat dementia caused by kainic acid (海人藻酸所致大鼠痴呆); conditions: male Wistar rats; cited from earlier work
[13] = test system: reflux oesophagitis and gastritis (反流性食道炎以及抗胃炎); conditions: cited from earlier work
[14] = test system: rat dementia caused by β-amyloid (β-淀粉样蛋白致大鼠痴呆); conditions: male Wistar rats; cited from earlier work
[15] = test system: SD rats (SD大鼠); assay: Single-dose oral gavage toxicity in SD rats; format: in vivo, rat; conditions: worked out from rat single oral dose
[16] = Single-dose oral gavage toxicity in SD rats; format: in vivo, rat; conditions: in vivo; SD rat, single oral gavage, 5000 mg/kg; 14 days observation; read-out: maximum administered dose
[17] = compared with apigenin and omeprazole

O=C(O)[C@H]1O[C@@H](Oc2cc3oc(-c4ccc(O)cc4)cc(=O)c3c(O)c2O)[C@H](O)[C@@H](O)[C@@H]1O [实施例1]
equivalent human daily intake of the NOAEL [1]: 833.3 mg | NOAEL at 672 h [2]: 25 mg/kg | clarity test conclusion [3]: 符合规定 | equivalent human daily intake of the NOAEL [4]: 2000 mg | NOAEL at 672 h [5]: 200 mg/kg | equivalent human daily intake of the MTD [6]: 7500 mg | MTD at 336 h [7]: 750 mg/kg | equivalent human daily intake of the MTD [8]: 6666 mg | MTD at 336 h [9]: 200 mg/kg

O=c1cc(-c2ccc(O)cc2)oc2cc(O)c(O)c(O)c12 [野黄芩素]
related biological activity [10]: 更强相关生物活性 | stability [11]: 在空气中易氧化变为醌类衍生物

O=C(O)[C@H]1O[C@@H](Oc2cc(O)c3c(=O)cc(-c4ccc(O)cc4)oc3c2)[C@H](O)[C@@H](O)[C@@H]1O [5,4’-二羟基黄酮-7-O-β-D-葡萄糖醛酸]
effect on pathological changes of brain tissue [12]: 有一定改善作用 | anti-reflux-oesophagitis and anti-gastritis effect [13, 17]: 比芹菜素和奥美拉唑更有效 | reduction of the extent of gastric lesions [13, 17]: 比芹菜素和奥美拉唑更能有效的减小胃损伤范围 | MOA content produced by induced reflux oesophagitis ([13]; mouse, in vivo): 减少由诱导反流性食管炎而产生的MOA的含量 | antioxidant activity ([13]; mouse, in vivo): 有抗氧化活性 | glutathione (GSH) produced in acute oesophagitis ([13]; mouse, in vivo): 清除急性食管炎产生的谷胱甘肽(GSH) | effect on pathological damage of cerebral cortex and hippocampus [14]: 可减轻β-淀粉样蛋白所致大鼠脑皮层及海马的病理损害 | therapeutic effect on dementia [14]: 有一定的治疗作用

O=C(O)[C@H]1O[C@@H](Oc2cc3oc(-c4ccc(O)cc4)cc(=O)c3c(O)c2O)[C@H](O)[C@@H](O)[C@@H]1O [实施例2]
equivalent human daily intake of the maximum administered dose [15]: 50 g | MTD at 336 h [16]: 5000 mg/kg
